pEC50, pIC50: −log10 of the molar value.
Assays:
NCI-H226 = assay: Antiproliferative activity against human NCI-H226 cells after 72 hrs by MTT assay; format: functional, cell-based; details: NCI-H226, 72 h
SK-N-SH = assay: Antiproliferative activity against human SK-N-SH cells after 72 hrs by MTT assay; format: functional, cell-based
HT-29 = assay: Antiproliferative activity against human HT-29 cells after 72 hrs by MTT assay; format: functional, cell-based; details: HT-29, 72 h
[1] = Antiproliferative activity against human MKN45 cells after 72 hrs by MTT assay; format: functional, cell-based; details: MKN-45, 72 h
MDA-MB-231 = assay: Antiproliferative activity against human MDA-MB-231 cells after 72 hrs by MTT assay; details: MDA-MB-231, 72 h
Caspase-3 = biological target: T1, Caspase-3 (Homo sapiens, UniProt P42574); assay: Induction of procaspase 3 activity (unknown origin) using Ac-DEVD-pNa as substrate after 2 hrs
T1 sequence (P42574 whole entry): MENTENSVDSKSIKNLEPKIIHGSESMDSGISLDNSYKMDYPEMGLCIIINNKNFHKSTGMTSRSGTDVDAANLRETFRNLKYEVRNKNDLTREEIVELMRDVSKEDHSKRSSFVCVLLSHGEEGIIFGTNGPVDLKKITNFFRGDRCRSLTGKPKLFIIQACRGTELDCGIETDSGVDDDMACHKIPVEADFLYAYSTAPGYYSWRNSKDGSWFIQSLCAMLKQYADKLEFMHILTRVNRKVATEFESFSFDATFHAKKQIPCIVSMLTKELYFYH

Caspase-3 (Homo sapiens) = biological target: T2, Caspase-3 (Homo sapiens) (UniProt P42574); assay: Ratio of PAC1 EC50 to compound EC50 for procaspase 3 activity (unknown origin)
T2 sequence (whole entry): T1 sequence (P42574 whole entry)

| pIC50 (NCI-H226) | pIC50 (SK-N-SH) | pIC50 (HT-29) | pIC50 (MDA-MB-231) | pEC50 (Caspase-3) | Ratio EC50 (Caspase-3 (Homo sapiens)) | Structure (SMILES) | pIC50 [1] |
| --- | --- | --- | --- | --- | --- | --- | --- |
| 5.91 | 5.50 | 5.33 | 4.82 |  |  | O=C(N/N=C/c1ccc(OCc2ccc(Cl)cc2Cl)cc1O)Nc1nc2ccc(N3CCOCC3)cc2s1 | 5.76 |
| 6.41 | 5.99 | 6.00 | 6.52 |  |  | CC1CCN(Cc2ccc3nc(NC(=O)N/N=C/c4ccc(OCc5ccc(Cl)cc5Cl)cc4O)sc3c2)CC1 | 6.55 |
| 5.34 | 5.11 | 5.56 | 5.78 |  |  | CC1CCN(Cc2ccc3nc(NC(=O)N/N=C/c4ccc(O)cc4O)sc3c2)CC1 | 5.39 |
| 6.09 | 5.90 | 5.95 | 6.06 |  |  | CC1CCN(Cc2ccc3nc(NC(=O)N/N=C/c4ccc(OCc5csc(Cc6ccc7c(c6)OCO7)n5)cc4O)sc3c2)CC1 | 6.26 |
| 6.10 | 6.07 | 5.99 | 5.64 |  |  | CC1CCN(Cc2ccc3nc(NC(=O)N/N=C/c4ccc(OCc5ccccc5Cl)cc4O)sc3c2)CC1 | 6.12 |
| 5.53 | 5.36 | 4.98 | 4.91 |  |  | CC1CCN(Cc2ccc3nc(NC(=O)N/N=C/c4ccccc4O)sc3c2)CC1 | 6.17 |
| 5.97 | 5.81 | 5.98 | 5.82 |  |  | Cc1ccc(COc2ccc(/C=N/NC(=O)Nc3nc4ccc(CN5CCC(C)CC5)cc4s3)c(O)c2)cc1 | 6.51 |
| 6.44 | 6.47 | 5.76 | 5.95 | 5.37 |  | CC1CCN(Cc2ccc3nc(NC(=O)N/N=C/c4ccc(OCc5cccc(Cl)c5)cc4O)sc3c2)CC1 | 6.17 |
| 6.39 | 5.97 | 6.02 | 6.06 |  |  | CC1CCN(Cc2ccc3nc(NC(=O)N/N=C/c4ccc(OCc5ccc(Cl)cc5)cc4O)sc3c2)CC1 | 6.68 |
| 6.21 | 5.88 | 5.80 |  |  |  | CC1CCN(Cc2ccc3nc(NC(=O)N/N=C/c4ccc(OCc5ccccc5)cc4O)sc3c2)CC1 |  |
| 6.74 | 6.57 | 6.06 | 6.25 | 5.62 |  | CC1CCN(Cc2ccc3nc(NC(=O)N/N=C/c4ccc(OCc5ccc(C(C)(C)C)cc5)cc4O)sc3c2)CC1 | 6.77 |
| 6.15 | 5.98 | 5.61 | 5.82 |  |  | CCN(CC)Cc1ccc2nc(NC(=O)N/N=C/c3ccc(OCc4ccc(Cl)cc4Cl)cc3O)sc2c1 | 6.28 |

The remaining lines, values behind:

| Structure (SMILES) | pIC50 (NCI-H226) | pIC50 (SK-N-SH) | pIC50 (HT-29) | pIC50 (MDA-MB-231) | pEC50 (Caspase-3) | Ratio EC50 (Caspase-3 (Homo sapiens)) | pIC50 [1] |
| --- | --- | --- | --- | --- | --- | --- | --- |
| CCN(CC)Cc1ccc2nc(NC(=O)N/N=C/c3ccc(OCc4ccc(C)cc4)cc3O)sc2c1 | 6.00 | 5.84 | 5.88 | 6.15 |  |  | 6.24 |
| CCN(CC)Cc1ccc2nc(NC(=O)N/N=C/c3ccc(OCc4csc(Cc5ccc6c(c5)OCO6)n4)cc3O)sc2c1 | 6.85 | 6.32 | 6.14 | 6.26 | 6.60 | 16 | 6.29 |
| CN(C)Cc1ccc2nc(NC(=O)N/N=C/c3ccc(O)cc3O)sc2c1 | 5.53 | 4.84 | 4.11 | < 4.00 |  |  | 5.55 |
| O=C(N/N=C/c1ccccc1O)Nc1nc2ccc(N3CCOCC3)cc2s1 | 5.37 | 4.93 | 4.17 | < 4.00 |  |  | 5.03 |
| CCN(CC)Cc1ccc2nc(NC(=O)N/N=C/c3ccc(OCc4ccccc4Cl)cc3O)sc2c1 | 6.25 | 5.70 | 5.65 | 6.13 |  |  | 6.38 |
| CN(C)Cc1ccc2nc(NC(=O)N/N=C/c3ccc(OCc4csc(Cc5ccc6c(c5)OCO6)n4)cc3O)sc2c1 | 6.14 | 6.10 | 5.73 | 5.98 |  |  | 6.21 |
| O=C(N/N=C/c1ccc(OCc2ccc(Cl)cc2)cc1O)Nc1nc2ccc(N3CCOCC3)cc2s1 | 6.59 | 5.86 | 8.74 | 5.35 |  |  | 6.54 |
| O=C(N/N=C/c1ccc(OCc2csc(Cc3ccc4c(c3)OCO4)n2)cc1O)Nc1nc2ccc(N3CCOCC3)cc2s1 | 5.67 | 5.21 | 5.64 | 5.39 |  |  | 6.00 |
| CN(C)Cc1ccc2nc(NC(=O)N/N=C/c3ccc(OCc4ccc(C(C)(C)C)cc4)cc3O)sc2c1 | 6.08 | 5.78 | 5.82 | 5.94 |  |  | 5.98 |
| CN(C)Cc1ccc2nc(NC(=O)N/N=C/c3ccccc3O)sc2c1 | 5.69 | 5.29 | 5.22 | 5.23 |  |  | 5.81 |
| CCN(CC)Cc1ccc2nc(NC(=O)N/N=C/c3ccc(OCc4cccc(Cl)c4)cc3O)sc2c1 | 5.89 | 5.74 | 5.73 | 6.24 |  |  | 6.38 |
| O=C(N/N=C/c1ccccc1O)Nc1nc2ccc(CN3CCOCC3)cc2s1 | 5.57 | 5.15 | 4.99 | 4.92 |  |  | 5.63 |
| CN(C)Cc1ccc2nc(NC(=O)N/N=C/c3ccc(OCc4ccc(Cl)cc4)cc3O)sc2c1 | 5.93 | 5.56 | 5.67 | 6.22 |  |  | 6.15 |
| CC(C)(C)c1ccc(COc2ccc(/C=N/NC(=O)Nc3nc4ccc(N5CCOCC5)cc4s3)c(O)c2)cc1 | 6.62 | 6.04 | 6.04 | 5.98 | 4.74 |  | 6.34 |
| CN(C)Cc1ccc2nc(NC(=O)N/N=C/c3ccc(OCc4cccc(Cl)c4)cc3O)sc2c1 | 6.44 | 5.92 | 5.53 | 6.27 |  |  | 6.72 |
| C=CCc1cccc(/C=N/NC(=O)CN2CCN(Cc3ccccc3)CC2)c1O [PAC-1] | 5.99 | 5.51 | 5.87 | 5.32 | 5.39 |  | 5.58 |
| CCN(CC)Cc1ccc2nc(NC(=O)N/N=C/c3ccc(OCc4ccc(Cl)cc4)cc3O)sc2c1 | 6.37 | 6.13 | 5.99 | 6.21 | 5.30 |  | 6.27 |
| Cc1ccc(COc2ccc(/C=N/NC(=O)Nc3nc4ccc(N5CCOCC5)cc4s3)c(O)c2)cc1 | 6.28 | 5.60 | 5.80 | 4.71 |  |  | 6.12 |
| O=C(N/N=C/c1ccc(OCc2cccc(Cl)c2)cc1O)Nc1nc2ccc(N3CCOCC3)cc2s1 | 6.10 | 5.83 | 6.23 | 5.93 |  |  | 6.55 |
| CCN(CC)Cc1ccc2nc(NC(=O)N/N=C/c3ccccc3O)sc2c1 | 5.74 | 5.24 | 5.39 | 4.95 |  |  | 5.77 |
| CN(C)Cc1ccc2nc(NC(=O)N/N=C/c3ccc(OCc4ccccc4Cl)cc3O)sc2c1 | 6.24 | 5.53 | 5.79 | 6.17 |  |  | 6.48 |
| Cc1ccc(COc2ccc(/C=N/NC(=O)Nc3nc4ccc(CN(C)C)cc4s3)c(O)c2)cc1 | 5.97 | 5.59 | 5.67 | 5.58 |  |  | 5.90 |
| CCN(CC)Cc1ccc2nc(NC(=O)N/N=C/c3ccc(O)cc3O)sc2c1 | 5.29 | 5.22 | 4.62 | 5.39 |  |  | 5.76 |
| CCN(CC)Cc1ccc2nc(NC(=O)N/N=C/c3ccc(OCc4ccccc4)cc3O)sc2c1 | 6.06 | 5.78 | 5.84 |  |  |  |  |
| CCN(CC)Cc1ccc2nc(NC(=O)N/N=C/c3ccc(OCc4ccc(C(C)(C)C)cc4)cc3O)sc2c1 | 6.80 | 6.32 | 6.11 | 6.01 | 5.85 | 2.9 | 6.30 |

Reference: ChEMBL document CHEMBL3351345, “Design, synthesis, and structure-activity relationships of novel benzothiazole derivatives bearing the ortho-hydroxy N-carbamoylhydrazone moiety as potent antitumor agents” (Eur J Med Chem, 2014)
